For data set [1], the system named is Albino BALBc mice, cecal ligation puncture (CLP). Put plainly: cecal ligation puncture (mCLP) model, 7-day survival. It counts as in vivo. As to the method:
The cecal ligation puncture (CLP) procedure was derived from a modification of standard methods previously described. Female, non-pregnant, specific pathogen-free, Albino BALBc mice (20-25 gm) were used in this experiment. The test compound (n=8 in each group) or corn oil control (n=12) were randomized to a treatment protocol consisting of 50 mg/kg of either the test compound or similar volume of corn oil at the time of CLP (time 0) and 24 and 48 hours following surgery. Animals were allowed to eat and drink sterile water on an ad libitum basis until 12 h before surgery when food was withheld until after the surgical procedure.
Anesthetized animals (methoxyflurane, Mallinckodt Veterninary Inc., Mundeline, Ill.) had the abdominal skin shaved and a midline, abdominal incision was made. The cecum was exteriorized and distended using intraluminal contents from the colon. The cecum was then ligated below the ileocecal valve and punctured twice using a 23-gauge sterile needle. The cecum was returned to the peritoneal cavity and the transversalis fascia was closed along with the skin incision. The skin incision was covered with topical bacitracin ointment. The animals were given a single […] dose of trovafloxacin (20 mg/kg IM) immediately post-operatively and a 1-mL subcutaneous dose of PBS was given as fluid resuscitation. […] All animals underwent necropsy examination for histological evidence of organ injury, pathology scoring of intestinal mucosa and quantitative bacteriology.
Differences in survival time between groups were analyzed by Kaplan-Meier survival plots and log-rank testing. Other parameters were measured using a Mann-Whitney U-Test for 2 groups or the Kruskal-Wallis one way analysis of variance for 3 or more groups. A p value of <0.05 was considered significant. All data is presented as mean and standard deviation.
The root compound (ERB-041) was dosed IV in the mCLP model, at 1 and 3 mg/kg at 24, 48 and 72 hours after induction of peritonitis. This therapeutic IV administration in mCLP confirmed attenuation of lung injury and cytokine/chemokine responses and attenuation of the subsequent clinical course, respectively.^5 achieving 7-day survival of 95 and 90% in the 3 and 1 mg/kg groups.
The 1 and 3 mg/kg doses were different from vehicle (0.05).

Data set [2] in a line: aqueous solubility at pH 7.4. Conditions: aqueous medium at pH 7.4 (buffer not specified), pH 7.4, aqueous buffer. It counts as physicochemical.
Data set [3] is described as follows: metabolite profiling of pooled plasma after single IV dose of the mono-phosphate derivative, rat. Conditions: single IV dose of mono-phosphate derivative (1.3 and 3.9 mg/kg), LC/UV/MS.
Description: (§1) In this study, 5, 15, 30 min, 1, 2, 4, 6, 8 and 24 hr plasma samples were collected following a single IV dose of the mono-phosphate derivative (1.3 and 3.9 mg/kg) to mice, rats and monkeys. Equal volume (100 μL) of samples from 5, 15, 30 min and 1, 2, 4 hr and 6, 8, 24 hr time points from each subject (n=3) were pooled from the two dosing groups. Aliquots (900 μL) of pooled plasma were mixed with 2700 μL of cold acetonitrile and centrifuged at 3200×g for 10 minutes. The resulting supernatants were transferred to clean tubes and evaporated to dryness in a TurboVap LV at ambient temperature under a slow stream of nitrogen. The dried extracts were reconstituted with 300 μL of 20:80 acetonitrile:water (v/v). The samples were then analyzed by LC/UV/MS for metabolite profiling and characterization. LC-ESI/MS in negative ionization mode was used to acquire mass spectral data.
The nature of data set [4]: metabolite profiling of pooled plasma after single IV dose of the mono-phosphate derivative, mouse. Conditions: single IV dose of mono-phosphate derivative (1.3 and 3.9 mg/kg), LC/UV/MS.
Description: as §1
Data set [5] in a line: metabolite profiling of pooled plasma after single IV dose of the mono-phosphate derivative, monkey. To be noted: single IV dose of mono-phosphate derivative (1.3 and 3.9 mg/kg), LC/UV/MS.
Description: as §1
A short description of another data set: IV pharmacokinetics. In kind it is in vivo.
[6] abbreviates: 1 mg/kg IV at 24, 48 and 72 hours after surgery / induction of peritonitis.
Where [7] appears, read: 3 mg/kg IV at 24, 48 and 72 hours after surgery / induction of peritonitis.

≈ marks a conversion by molar mass, not a printed value.

Description for IV pharmacokinetics: as §1

For the compound `C=Cc1cc(O)cc2nc(-c3ccc(O)c(F)c3)oc12` [ERB-041, 2-(3-fluoro-4-hydroxyphenyl)-7-vinyl-1,3-benzoxazol-5-ol, reference compound], the 7-day survival in data set [1] (setting [6]) was 90%; in data set [1] (setting [7]), 95%. For the same compound, the “lung injury and cytokine/chemokine responses” value in data set [1] (1 and 3 mg/kg IV at 24, 48 and 72 hours after induction of peritonitis) is “attenuation”. The amount in solution in data set [2] (solubility) came to 4 µg/mL (≈ 14.7 µM). The “Metabolites of phosphate prodrug characterized in plasma: Rat” value in data set [3] is on record as “Yes”. The “Metabolites of phosphate prodrug characterized in plasma: Mouse” value in data set [4] is “Yes”. For the same compound, in data set [5], the “Metabolites of phosphate prodrug characterized in plasma: Monkey” value is “Yes”.
Take `C=Cc1cc(O)cc2nc(-c3ccc(OP(=O)(O)O)c(F)c3)oc12` [Mono-Phosphate derivative of ERB 041, 2-fluoro-4-(5-hydroxy-7-vinylbenzo[d]oxazol-2-yl)phenyl dihydrogen phosphate]: the 7-day survival in data set [1] (0.3 mg/kg IV at 24, 48 and 72 hours after surgery) is listed as 40%; in data set [1] (setting [6]) it was 60%; in data set [1] (setting [7]), 60%. Further, in data set [1] (IV), the “minimally effective dose in mCLP” value came to 1 mg/kg. Moreover, the solubility (as a rule, the concentration that dissolves in the medium under given conditions) in data set [2] is more than 100 µg/mL. For the same compound, the IV pharmacokinetics result in the data set “IV pharmacokinetics” is reported as “reasonable”. For the same compound, the “Metabolites of phosphate prodrug characterized in plasma: Rat” value in data set [3] is reported as “Yes”. In addition, the “Metabolites of phosphate prodrug characterized in plasma: Mouse” value in data set [4] is “Yes”. In addition, the “Metabolites of phosphate prodrug characterized in plasma: Monkey” value in data set [5] is reported as “Yes”.

For the origin of these results see US20110212923A1, “Phosphate Derivatives of Substituted Benzoxazoles” (PFIZER INC., priority 2008, published 2011).
